# Data taken from ChEMBL document CHEMBL1201862, “PubChem BioAssay data set” (2004).
#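 Method: 48-hour compound exposure of cells in 96-well plates, five concentrations, linear interpolation of endpoints. Here, GI50 denotes the concentration required for 50% inhibition of growth.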 Calls of active or inactive are those of the source. No stated cut-off is given here; in the data, active = GI50 up to about 1.1 µM and inactive = higher.
# Columns and labels:
# Test in all cases: NCI anticancer screen, dose series, 48 h
# SF-268 = test system: SF-268
# SR = test system: SR
# OVCAR-5 = test system: OVCAR-5
# HOP-92 = test system: HOP-92
# SK-MEL-5 = test system: SK-MEL-5
# SN12C = test system: SN12C
# MDA-MB-231 = test system: MDA-MB-231
# SK-MEL-2 = test system: SK-MEL-2
# SW-620 = test system: SW-620
# NCI-H460 = test system: NCI-H460
# MOLT-4 = test system: MOLT-4
# PC-3 = test system: PC-3
# KM12 = test system: KM12
# HCT-15 = test system: HCT-15
# UO-31 = test system: UO-31
# HL-60 = test system: HL-60
# BT-549 = test system: BT-549
# OVCAR-3 = test system: OVCAR-3
# NCI/ADR-RES = test system: NCI/ADR-RES
# CCRF-CEM = test system: CCRF-CEM
Compound,GI50 (SF-268),GI50 (SR),GI50 (OVCAR-5),GI50 (HOP-92),GI50 (SK-MEL-5),GI50 (SN12C),GI50 (MDA-MB-231),GI50 (SK-MEL-2),GI50 (SW-620),GI50 (NCI-H460),GI50 (MOLT-4),GI50 (PC-3),GI50 (KM12),GI50 (HCT-15) [µM],GI50 (UO-31),GI50 (HL-60),GI50 (BT-549),GI50 (OVCAR-3),GI50 (NCI/ADR-RES),GI50 (CCRF-CEM)
NC(=O)c1csc(-c2ccc(CO)o2)n1,> 100 µM (inactive),> 100 µM (inactive),> 100 µM (inactive),> 100 µM (inactive),> 100 µM (inactive),> 100 µM (inactive),> 100 µM (inactive),> 100 µM (inactive),> 100 µM (inactive),> 100 µM (inactive),> 100 µM (inactive),> 100 µM (inactive),> 100 µM (inactive),> 100,> 100 µM (inactive),> 100 µM (inactive),> 100 µM (inactive),> 100 µM (inactive),> 100 µM (inactive),
CCN(CC)CC[S+]([O-])c1c2cc(OC)ccc2nc2ccc(OC)cc12 (stereo not given),7.93 µM (inactive),2.72 µM (inactive),16.6 µM (inactive),3.28 µM (inactive),16.5 µM (inactive),4.49 µM (inactive),13.6 µM (inactive),18.6 µM (inactive),3.03 µM (inactive),27.7 µM (inactive),2.31 µM (inactive),12 µM (inactive),20.6 µM (inactive),3.21,2.25 µM (inactive),3.67 µM (inactive),15.8 µM (inactive),3.39 µM (inactive),19.6 µM (inactive),3.14 µM (inactive)
Cc1ccc(N2CCN(CCC(=O)O)CC2)cc1,> 100 µM (inactive),16.9 µM (inactive),> 100 µM (inactive),> 100 µM (inactive),> 100 µM (inactive),> 100 µM (inactive),> 100 µM (inactive),> 100 µM (inactive),> 100 µM (inactive),> 100 µM (inactive),,> 100 µM (inactive),> 100 µM (inactive),> 100,> 100 µM (inactive),0.834 µM (active),> 100 µM (inactive),> 100 µM (inactive),> 100 µM (inactive),52.7 µM (inactive)
O=S(=O)(/C=C/C=C/[S+]([O-])c1ccccc1)c1ccccc1 (stereo not given),3.13 µM (inactive),0.877 µM (active),> 8.22 µM (inactive),1.96 µM (inactive),1.03 µM (active),2 µM (inactive),2.81 µM (inactive),2.01 µM (inactive),1.3 µM (inactive),> 10 µM (inactive),1.42 µM (inactive),> 6.92 µM (inactive),> 2.63 µM (inactive),2.05,2.27 µM (inactive),0.327 µM (active),> 10 µM (inactive),1.53 µM (inactive),2.12 µM (inactive),0.333 µM (active)
Clc1nc(Cl)nc(NC23CC4CC(CC(C4)C2)C3)n1,19.2 µM (inactive),20.1 µM (inactive),19.5 µM (inactive),17.2 µM (inactive),13.7 µM (inactive),18.1 µM (inactive),17.9 µM (inactive),,16.7 µM (inactive),26.3 µM (inactive),17.9 µM (inactive),> 34.8 µM (inactive),14.9 µM (inactive),15.6,9.33 µM (inactive),3.44 µM (inactive),19.3 µM (inactive),18.8 µM (inactive),21 µM (inactive),7.55 µM (inactive)
Cc1cc2ccccc2oc(=O)/c1=N\Nc1ccccc1,,> 100 µM (inactive),> 100 µM (inactive),73.8 µM (inactive),84.1 µM (inactive),65.3 µM (inactive),25.6 µM (inactive),> 100 µM (inactive),23 µM (inactive),70 µM (inactive),> 100 µM (inactive),62.7 µM (inactive),58.2 µM (inactive),> 100,24.9 µM (inactive),> 100 µM (inactive),78.9 µM (inactive),> 100 µM (inactive),32.3 µM (inactive),> 100 µM (inactive)
N#CC1=C(S)N(C2OC(CO)C(O)C(O)C2O)C(c2ccccc2)=CC1c1ccco1 (stereo not given),> 100 µM (inactive),36.9 µM (inactive),> 100 µM (inactive),32.6 µM (inactive),26.9 µM (inactive),40.5 µM (inactive),54.5 µM (inactive),59 µM (inactive),,28.2 µM (inactive),35.2 µM (inactive),47.4 µM (inactive),41.9 µM (inactive),68.9,82.2 µM (inactive),> 100 µM (inactive),> 100 µM (inactive),> 100 µM (inactive),> 100 µM (inactive),88.9 µM (inactive)
COc1cc(/C=C/C2=NN(c3cccc(S(=O)(=O)O)c3)C3(C2)SCC(=O)N3c2nc3ccccc3s2)cc(OC)c1OC (stereo not given),39.4 µM (inactive),23.8 µM (inactive),> 100 µM (inactive),> 100 µM (inactive),74.1 µM (inactive),33.3 µM (inactive),43.3 µM (inactive),42.1 µM (inactive),61.7 µM (inactive),37.5 µM (inactive),32.9 µM (inactive),45.9 µM (inactive),38.5 µM (inactive),51.9,36.1 µM (inactive),23.8 µM (inactive),42 µM (inactive),,42.7 µM (inactive),28.8 µM (inactive)
CC(=O)OCC1OC(n2c3c(cc(C#N)c2=O)CCCCCC3)C(OC(C)=O)C(OC(C)=O)C1OC(C)=O (stereo not given),> 100 µM (inactive),96.6 µM (inactive),> 100 µM (inactive),> 100 µM (inactive),> 100 µM (inactive),> 100 µM (inactive),> 100 µM (inactive),> 100 µM (inactive),,> 100 µM (inactive),> 100 µM (inactive),> 100 µM (inactive),> 100 µM (inactive),> 100,> 100 µM (inactive),> 100 µM (inactive),> 100 µM (inactive),> 100 µM (inactive),> 100 µM (inactive),> 100 µM (inactive)
C=C1CN2CC(=C)CN(C1)CS(=O)(=O)N1CC(=C)CN(CC(=C)C1)S(=O)(=O)N1CC(=C)CN(CC(=C)C1)S(=O)(=O)C2,25.6 µM (inactive),> 100 µM (inactive),56.8 µM (inactive),31.3 µM (inactive),19.4 µM (inactive),43.4 µM (inactive),24.2 µM (inactive),38.4 µM (inactive),71.8 µM (inactive),> 100 µM (inactive),67.1 µM (inactive),17.7 µM (inactive),40.4 µM (inactive),> 100,42 µM (inactive),35 µM (inactive),78.5 µM (inactive),> 100 µM (inactive),> 100 µM (inactive),
NC(=O)c1cc2ccccc2o/c1=N/O,> 100 µM (inactive),> 100 µM (inactive),,> 100 µM (inactive),> 100 µM (inactive),> 100 µM (inactive),> 100 µM (inactive),> 100 µM (inactive),> 100 µM (inactive),> 100 µM (inactive),> 100 µM (inactive),> 100 µM (inactive),> 100 µM (inactive),> 100,38.7 µM (inactive),75.2 µM (inactive),> 100 µM (inactive),> 100 µM (inactive),> 100 µM (inactive),> 100 µM (inactive)
CCOC(=O)c1cc(-n2nnc3ccccc32)cn1C,> 10 µM (inactive),1.32 µM (inactive),> 10 µM (inactive),> 10 µM (inactive),> 10 µM (inactive),> 10 µM (inactive),> 10 µM (inactive),> 10 µM (inactive),,> 10 µM (inactive),> 10 µM (inactive),> 10 µM (inactive),> 10 µM (inactive),> 10,> 10 µM (inactive),> 10 µM (inactive),> 10 µM (inactive),> 10 µM (inactive),> 10 µM (inactive),> 10 µM (inactive)
Nc1ccccc1.O=C(O)C(C(F)(F)F)C(F)(F)F,> 100 µM (inactive),> 100 µM (inactive),> 100 µM (inactive),> 100 µM (inactive),> 100 µM (inactive),> 100 µM (inactive),> 100 µM (inactive),> 100 µM (inactive),> 100 µM (inactive),> 100 µM (inactive),> 100 µM (inactive),> 100 µM (inactive),71.8 µM (inactive),14.9,> 100 µM (inactive),> 100 µM (inactive),> 100 µM (inactive),> 100 µM (inactive),> 100 µM (inactive),> 100 µM (inactive)
CC(=O)OC1CC[C@@]2(C)C(CC[C@]3(C)C2CC=C2[C@@H]4C(C)[C@H](C)CCC4(C)CCC23C)[C@@]1(C)C(=O)O (stereo not given in full),23.5 µM (inactive),27.9 µM (inactive),18 µM (inactive),21.2 µM (inactive),17.4 µM (inactive),21.5 µM (inactive),20.9 µM (inactive),21.3 µM (inactive),21.9 µM (inactive),23.5 µM (inactive),26.8 µM (inactive),15.4 µM (inactive),21.2 µM (inactive),17.6,20.7 µM (inactive),27.4 µM (inactive),25 µM (inactive),18.9 µM (inactive),17 µM (inactive),24.9 µM (inactive)
